≈ marks a conversion by molar mass, not a printed value. Calls of active or inactive are those of the source. The calls are words filed in the database; no cut-off is given here.
Columns and labels:
[1] = target: T1, Probable esterase LipO (Mycobacterium tuberculosis (strain ATCC 25618 / H37Rv)) (UniProt O06832); test: Competitive binding affinity to Mycobacterium tuberculosis H37Rv ATCC 25618 lipase-O at 60 uM preincubated for 60 mins followed by La-1 probe addition measured after 30 mins by ABPP method
T1 sequence (whole entry): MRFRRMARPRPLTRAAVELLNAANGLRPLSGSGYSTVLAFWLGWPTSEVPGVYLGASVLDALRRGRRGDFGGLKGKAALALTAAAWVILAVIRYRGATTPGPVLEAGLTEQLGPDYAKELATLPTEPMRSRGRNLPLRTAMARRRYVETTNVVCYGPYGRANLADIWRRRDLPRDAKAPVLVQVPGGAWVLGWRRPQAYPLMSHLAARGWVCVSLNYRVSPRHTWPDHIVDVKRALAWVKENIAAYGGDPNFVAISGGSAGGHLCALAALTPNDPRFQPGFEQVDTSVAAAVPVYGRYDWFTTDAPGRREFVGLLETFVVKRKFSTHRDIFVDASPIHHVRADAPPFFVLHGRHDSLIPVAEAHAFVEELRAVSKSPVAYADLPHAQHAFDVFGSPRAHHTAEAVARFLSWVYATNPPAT

[2] = target: T2, Probable carboxylic ester hydrolase LipM (Mycobacterium tuberculosis (strain ATCC 25618 / H37Rv)) (UniProt Q50681); test: Competitive binding affinity to Mycobacterium tuberculosis H37Rv ATCC 25618 lipase-M at 60 uM preincubated for 60 mins followed by La-1 probe addition measured after 30 mins by ABPP method
T2 sequence (whole entry): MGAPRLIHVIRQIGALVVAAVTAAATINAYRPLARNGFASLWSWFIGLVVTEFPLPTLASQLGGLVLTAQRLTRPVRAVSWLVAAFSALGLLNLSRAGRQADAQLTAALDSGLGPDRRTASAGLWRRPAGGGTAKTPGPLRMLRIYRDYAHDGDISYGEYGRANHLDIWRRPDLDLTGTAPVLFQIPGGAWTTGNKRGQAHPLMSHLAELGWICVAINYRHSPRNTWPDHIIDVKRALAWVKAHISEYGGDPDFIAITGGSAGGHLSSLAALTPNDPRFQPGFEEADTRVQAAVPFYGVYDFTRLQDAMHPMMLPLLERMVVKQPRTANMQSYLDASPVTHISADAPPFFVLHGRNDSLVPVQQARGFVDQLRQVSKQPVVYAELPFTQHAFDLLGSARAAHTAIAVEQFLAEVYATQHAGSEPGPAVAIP

[3] = target: T3, Carboxylic ester hydrolase (Mycobacterium tuberculosis (strain ATCC 25618 / H37Rv)) (UniProt O53488); test: Competitive binding affinity to Mycobacterium tuberculosis H37Rv ATCC 25618 lipase-T at 60 uM preincubated for 60 mins followed by La-1 probe addition measured after 30 mins by ABPP method
T3 sequence (whole entry): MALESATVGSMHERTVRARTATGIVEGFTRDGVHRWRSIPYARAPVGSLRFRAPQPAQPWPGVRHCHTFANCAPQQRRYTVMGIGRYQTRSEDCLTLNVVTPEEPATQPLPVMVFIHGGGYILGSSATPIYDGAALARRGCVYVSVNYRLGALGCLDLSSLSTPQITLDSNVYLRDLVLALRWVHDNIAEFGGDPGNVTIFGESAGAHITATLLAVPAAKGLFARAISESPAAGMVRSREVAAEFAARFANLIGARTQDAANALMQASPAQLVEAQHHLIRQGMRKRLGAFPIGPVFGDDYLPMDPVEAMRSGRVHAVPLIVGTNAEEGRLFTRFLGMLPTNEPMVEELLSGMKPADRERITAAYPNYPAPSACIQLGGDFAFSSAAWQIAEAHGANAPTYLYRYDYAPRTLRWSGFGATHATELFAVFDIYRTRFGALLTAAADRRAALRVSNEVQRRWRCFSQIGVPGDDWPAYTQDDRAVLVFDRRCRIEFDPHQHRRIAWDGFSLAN

[4] = target: T4, Carboxylic ester hydrolase LipN (Mycobacterium tuberculosis (strain ATCC 25618 / H37Rv)) (UniProt P95125); test: Competitive binding affinity to Mycobacterium tuberculosis H37Rv ATCC 25618 lipaseN at 60 uM preincubated for 60 mins followed by La-1 probe addition measured after 30 mins by ABPP method
T4 sequence (whole entry): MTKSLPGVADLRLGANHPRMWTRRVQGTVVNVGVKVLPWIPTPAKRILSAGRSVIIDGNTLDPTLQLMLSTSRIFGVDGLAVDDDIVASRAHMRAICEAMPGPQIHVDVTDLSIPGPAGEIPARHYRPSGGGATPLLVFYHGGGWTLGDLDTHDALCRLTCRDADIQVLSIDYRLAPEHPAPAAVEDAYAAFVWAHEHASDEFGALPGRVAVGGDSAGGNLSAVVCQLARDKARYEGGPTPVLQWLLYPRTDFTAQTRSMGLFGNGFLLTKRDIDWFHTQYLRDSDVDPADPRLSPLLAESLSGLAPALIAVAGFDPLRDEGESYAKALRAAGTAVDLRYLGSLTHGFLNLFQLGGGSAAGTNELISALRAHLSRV

[5] = test system: Mycobacterium tuberculosis H37Rv; test: Inhibition of lipase in Mycobacterium tuberculosis H37Rv assessed as cell growth inhibition after 7 days by resazurin assay
[6] = target: T5, Probable lipase/esterase LipG (Mycobacterium tuberculosis (strain ATCC 25618 / H37Rv)) (UniProt P96935); test: Competitive binding affinity to Mycobacterium tuberculosis H37Rv ATCC 25618 lipase-G at 60 uM preincubated for 60 mins followed by La-1 probe addition measured after 30 mins by ABPP method
T5 sequence (whole entry): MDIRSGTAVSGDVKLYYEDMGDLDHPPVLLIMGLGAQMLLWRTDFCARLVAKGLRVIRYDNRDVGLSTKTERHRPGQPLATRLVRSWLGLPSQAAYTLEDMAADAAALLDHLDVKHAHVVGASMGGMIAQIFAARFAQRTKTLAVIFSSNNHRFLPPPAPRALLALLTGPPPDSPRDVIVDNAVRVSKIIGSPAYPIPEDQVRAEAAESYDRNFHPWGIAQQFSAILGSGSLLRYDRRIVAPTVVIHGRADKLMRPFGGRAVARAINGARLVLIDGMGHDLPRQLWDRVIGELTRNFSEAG

[7] = target: T6, Putative acetyl-hydrolase LipR (Mycobacterium tuberculosis (strain ATCC 25618 / H37Rv)) (UniProt P9WK85); test: Competitive binding affinity to Mycobacterium tuberculosis H37Rv ATCC 25618 lipaseR at 60 uM preincubated for 60 mins followed by La-1 probe addition measured after 30 mins by ABPP method
T6 sequence (whole entry): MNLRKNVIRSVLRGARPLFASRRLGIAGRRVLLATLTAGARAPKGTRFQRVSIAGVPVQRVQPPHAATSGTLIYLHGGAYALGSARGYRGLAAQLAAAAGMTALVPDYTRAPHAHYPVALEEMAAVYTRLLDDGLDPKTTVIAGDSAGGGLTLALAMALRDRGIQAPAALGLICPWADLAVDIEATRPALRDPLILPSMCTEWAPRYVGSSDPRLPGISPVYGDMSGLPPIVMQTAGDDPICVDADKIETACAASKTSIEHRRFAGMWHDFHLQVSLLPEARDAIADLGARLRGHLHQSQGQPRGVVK

[8] = test system: Mycobacterium tuberculosis H37Rv; test: Ratio of MIC for inhibition of lipase in Mycobacterium tuberculosis H37Rv assessed as cell growth inhibition in absence of vancomycin to MIC for inhibition of lipase in Mycobacterium tuberculosis H37Rv assessed as cell growth inhibition in presence of vancomycin
[9] = target: T7, Esterase LipI (Mycobacterium tuberculosis (strain ATCC 25618 / H37Rv)) (UniProt P71668); test: Competitive binding affinity to Mycobacterium tuberculosis H37Rv ATCC 25618 lipase-I at 60 uM preincubated for 60 mins followed by La-1 probe addition measured after 30 mins by ABPP method
T7 sequence (whole entry): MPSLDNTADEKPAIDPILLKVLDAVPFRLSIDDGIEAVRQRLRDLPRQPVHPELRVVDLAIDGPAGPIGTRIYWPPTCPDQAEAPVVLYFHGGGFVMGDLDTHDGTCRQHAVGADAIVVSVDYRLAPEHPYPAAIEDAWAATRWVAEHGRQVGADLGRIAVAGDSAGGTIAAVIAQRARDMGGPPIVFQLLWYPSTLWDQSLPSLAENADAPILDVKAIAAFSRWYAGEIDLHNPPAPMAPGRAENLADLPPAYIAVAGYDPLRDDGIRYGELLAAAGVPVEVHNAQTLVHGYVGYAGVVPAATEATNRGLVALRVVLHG

[10] = test system: Mycobacterium tuberculosis H37Rv; test: Inhibition of lipase in Mycobacterium tuberculosis H37Rv infected in human monocyte derived macrophages assessed as inhibition of bacterial growth treated for 7 days starting from 4 day post infection relative to control
[11] = test system: Mycobacterium tuberculosis H37Rv; test: Inhibition of lipase in Mycobacterium tuberculosis H37Rv expressing GFP assessed as cell growth inhibition at 4 uM by fluorescence assay
[12] = test system: Mycobacterium tuberculosis; test: Antitubercular activity against Mycobacterium tuberculosis H37Rv; format: functional
[13] = test system: Mycobacterium tuberculosis H37Rv; test: Ratio of MIC for inhibition of lipase in Mycobacterium tuberculosis H37Rv assessed as cell growth inhibition in absence of lalistat to MIC for inhibition of lipase in Mycobacterium tuberculosis H37Rv assessed as cell growth inhibition in presence of lalistat
[14] = test system: Mycobacterium tuberculosis; test: Antitubercular activity against Mycobacterium tuberculosis H37Rv assessed as cell growth inhibition by microbroth dilution assay; format: functional
[15] = target: T6, Putative acetyl-hydrolase LipR (Mycobacterium tuberculosis (strain ATCC 25618 / H37Rv)); test: Binding affinity to N-terminal His6-tagged Mycobacterium tuberculosis H37Rv ATCC 25618 lipase-R at 30 uM after 30 mins by RhN3 staining based fluorescence assay

O=C(Oc1nsnc1N1CCCCC1)N1CCCCC1
Activity [1]: Active | Activity [2]: Active | Activity [3]: Active | Activity [4]: Active | MIC [5]: 25 to 50 µM (≈ 7.41 to 14.8 µg/mL) | Activity [6]: Active | Activity [7]: Active | Ratio [8]: 4 | Activity [9]: Active | growth inhibition (GI) [10]: 55% | growth inhibition (GI) [11]: Active

CCCCCCCCCCC[C@@H](C[C@@H]1OC(=O)[C@H]1CCCCCC)OC(=O)[C@H](CC(C)C)NC=O [ORLISTAT]
MIC [12]: 30 µM (≈ 14.9 µg/mL)

CN[C@H](CC(C)C)C(=O)N[C@H]1C(=O)N[C@@H](CC(N)=O)C(=O)N[C@H]2C(=O)N[C@H]3C(=O)N[C@H](C(=O)N[C@H](C(=O)O)c4cc(O)cc(O)c4-c4cc3ccc4O)[C@H](O)c3ccc(c(Cl)c3)Oc3cc2cc(c3O[C@@H]2O[C@H](CO)[C@@H](O)[C@H](O)[C@H]2O[C@H]2C[C@](C)(N)[C@H](O)[C@H](C)O2)Oc2ccc(cc2Cl)[C@H]1O
Ratio [13]: 16

NNC(=O)c1ccncc1 [ISONIAZID]
MIC [14]: 0.04 to 1 µM

C#CC1CCN(C(=O)Oc2nsnc2N2CCCCC2)CC1
Activity [15]: Active | growth inhibition (GI) [5]: Active

CO[C@H]1/C=C/O[C@@]2(C)Oc3c(C)c(O)c4c(O)c(c(/C=N/N5CCN(C)CC5)c(O)c4c3C2=O)NC(=O)/C(C)=C\C=C\[C@H](C)[C@H](O)[C@@H](C)[C@@H](O)[C@@H](C)[C@H](OC(C)=O)[C@@H]1C [RIFAMPIN]
MIC [14]: 0.04 to 1 µM
